These molecules were tested against T1, Tyrosine-protein phosphatase non-receptor type 1 (Homo sapiens, UniProt P18031) (assay: Inhibition of recombinant human PTP1B assessed as hydrolysis of p-nitrophenyl phosphate after 30 mins).
T1 sequence (P18031 whole entry): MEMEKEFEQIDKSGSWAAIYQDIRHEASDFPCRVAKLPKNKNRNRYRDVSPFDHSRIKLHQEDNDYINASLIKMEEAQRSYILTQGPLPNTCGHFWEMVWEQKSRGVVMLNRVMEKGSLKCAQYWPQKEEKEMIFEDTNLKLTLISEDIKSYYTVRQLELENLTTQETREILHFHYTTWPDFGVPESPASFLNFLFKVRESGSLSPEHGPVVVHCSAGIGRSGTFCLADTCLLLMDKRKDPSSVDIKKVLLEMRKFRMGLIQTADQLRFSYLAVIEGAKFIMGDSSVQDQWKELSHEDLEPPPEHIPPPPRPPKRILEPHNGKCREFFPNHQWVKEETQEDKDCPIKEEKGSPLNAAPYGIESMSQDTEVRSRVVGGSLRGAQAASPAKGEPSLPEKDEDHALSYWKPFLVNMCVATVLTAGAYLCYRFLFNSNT

| Compound | IC50 |
| --- | --- |
| COc1c(/C=C/C(=O)c2ccc(O)cc2)ccc(O)c1CC=C(C)C | 30.9 µM |
| C=CC(C)(C)c1cc(/C=C/C(=O)c2ccc(OC)cc2)c(OC)cc1O | 11.7 µM |
| C=CC(C)(C)c1cc(/C=C/C(=O)c2ccc(OC)cc2)c(OC)cc1OC(C)=O | 19.4 µM |
| C=CC(C)(C)c1cc(/C=C/C(=O)c2ccc(O)cc2)c(OC)cc1OC(C)=O | 17.3 µM |
| C=CC(C)(C)c1cc(/C=C/C(=O)c2ccc(OC(C)=O)cc2)c(OC)cc1OC | 29.2 µM |
| C=CC(C)(C)c1cc(/C=C/C(=O)c2ccc(O)cc2)c(OC)cc1OC | 18.3 µM |
| C=CC(C)(C)c1cc(/C=C/C(=O)c2ccc(OC(C)=O)cc2)c(OC)cc1O | 19.2 µM |
| C=C(C)C(C)c1cc(/C=C/C(=O)c2ccc(O)cc2)c(OC)cc1O (centres undefined) | 20.7 µM |
| C=CC(C)(C)c1cc(/C=C/C(=O)c2ccc(OC)cc2)c(OC)cc1OC | 19.8 µM |
| C=CC(C)(C)c1cc(/C=C/C(=O)c2ccc(OC(C)=O)cc2)c(OC)cc1OC(C)=O | > 50 µM |
| COc1cc(O)ccc1/C=C/C(=O)c1ccc(O)cc1 [ECHINATIN] | > 50 µM |
| O=C(/C=C/c1ccc(O)cc1)c1ccc(O)cc1O [ISOLIQUIRITIGENIN] | > 50 µM |
| C=CC(C)(C)c1cc(/C=C/C(=O)c2ccc(O)cc2)c(OC)cc1O [LICOAGROCHACONE A] | 19.1 µM |
| O=C1C[C@@H](c2ccc(O)cc2)Oc2cc(O)ccc21 [LIQUIRTIGENIN] | > 50 µM |
